What was measured:
MRCKα = target: T1, MRCKα (Homo sapiens, UniProt Q5VT25); experiment: Cell-free biochemical kinase activity assay (pMYPT1 immunoblot)
T1 construct: purchased Invitrogen
Experimental: (§1) Cell-free biochemical kinase inhibitory activity of these compounds was evaluated at 1 µM concentration using the previously described ROCK1 kinase activity assay. Among the 27 analogs, we identified four analogs (DJ110, DJ-Allyl, DJE4, and DJ-Morpholine) with >50% inhibition of MYPT1 phosphorylation (Supplementary Figure S1). These four compounds were selected for further evaluation at 1 µM and 0.1 µM for their in vitro inhibitory activity against ROCK1, ROCK2, MRCKα, and MRCKβ kinases.
(§2) Cell-free biochemical kinase activity was assayed using published procedures. Briefly, recombinant ROCK1 (9.48 nM) or ROCK2 (8.26 nM; Invitrogen, Waltham, MA, USA) was incubated in the presence of 0.1 and 1 µM concentrations of DJ4 analogs or DMSO in ROCK-assay buffer at room temperature (RT) for 10 min. MRCKα and MRCKβ (2 ng/µL; Invitrogen) assays were performed in the assay buffer recommended by the manufacturer. Recombinant MYPT1 (20 ng/µL; Millipore) and ATP (5 µM) were added to initiate the reaction. The reaction was incubated at 30 °C for 20 min. Western blot analysis of these samples for phosphorylation of MYPT1 was performed as per the method mentioned in our earlier publication. Briefly, an equal amount of sample was loaded on Bis-Tris gel (Novex, Life Technologies, Carlsbad, CA, USA), proteins were electrophoresed and transferred to PVDF membranes. The blots were probed with anti-pMYPT1 (Thr696) or anti-MYPT1 (Millipore) antibodies.

MRCKβ = target: T2, MRCKβ (Homo sapiens, UniProt Q9Y5S2); experiment: as above; conditions: 1 µM
T2 construct: purchased Invitrogen
T2 sequence (Q9Y5S2 whole entry): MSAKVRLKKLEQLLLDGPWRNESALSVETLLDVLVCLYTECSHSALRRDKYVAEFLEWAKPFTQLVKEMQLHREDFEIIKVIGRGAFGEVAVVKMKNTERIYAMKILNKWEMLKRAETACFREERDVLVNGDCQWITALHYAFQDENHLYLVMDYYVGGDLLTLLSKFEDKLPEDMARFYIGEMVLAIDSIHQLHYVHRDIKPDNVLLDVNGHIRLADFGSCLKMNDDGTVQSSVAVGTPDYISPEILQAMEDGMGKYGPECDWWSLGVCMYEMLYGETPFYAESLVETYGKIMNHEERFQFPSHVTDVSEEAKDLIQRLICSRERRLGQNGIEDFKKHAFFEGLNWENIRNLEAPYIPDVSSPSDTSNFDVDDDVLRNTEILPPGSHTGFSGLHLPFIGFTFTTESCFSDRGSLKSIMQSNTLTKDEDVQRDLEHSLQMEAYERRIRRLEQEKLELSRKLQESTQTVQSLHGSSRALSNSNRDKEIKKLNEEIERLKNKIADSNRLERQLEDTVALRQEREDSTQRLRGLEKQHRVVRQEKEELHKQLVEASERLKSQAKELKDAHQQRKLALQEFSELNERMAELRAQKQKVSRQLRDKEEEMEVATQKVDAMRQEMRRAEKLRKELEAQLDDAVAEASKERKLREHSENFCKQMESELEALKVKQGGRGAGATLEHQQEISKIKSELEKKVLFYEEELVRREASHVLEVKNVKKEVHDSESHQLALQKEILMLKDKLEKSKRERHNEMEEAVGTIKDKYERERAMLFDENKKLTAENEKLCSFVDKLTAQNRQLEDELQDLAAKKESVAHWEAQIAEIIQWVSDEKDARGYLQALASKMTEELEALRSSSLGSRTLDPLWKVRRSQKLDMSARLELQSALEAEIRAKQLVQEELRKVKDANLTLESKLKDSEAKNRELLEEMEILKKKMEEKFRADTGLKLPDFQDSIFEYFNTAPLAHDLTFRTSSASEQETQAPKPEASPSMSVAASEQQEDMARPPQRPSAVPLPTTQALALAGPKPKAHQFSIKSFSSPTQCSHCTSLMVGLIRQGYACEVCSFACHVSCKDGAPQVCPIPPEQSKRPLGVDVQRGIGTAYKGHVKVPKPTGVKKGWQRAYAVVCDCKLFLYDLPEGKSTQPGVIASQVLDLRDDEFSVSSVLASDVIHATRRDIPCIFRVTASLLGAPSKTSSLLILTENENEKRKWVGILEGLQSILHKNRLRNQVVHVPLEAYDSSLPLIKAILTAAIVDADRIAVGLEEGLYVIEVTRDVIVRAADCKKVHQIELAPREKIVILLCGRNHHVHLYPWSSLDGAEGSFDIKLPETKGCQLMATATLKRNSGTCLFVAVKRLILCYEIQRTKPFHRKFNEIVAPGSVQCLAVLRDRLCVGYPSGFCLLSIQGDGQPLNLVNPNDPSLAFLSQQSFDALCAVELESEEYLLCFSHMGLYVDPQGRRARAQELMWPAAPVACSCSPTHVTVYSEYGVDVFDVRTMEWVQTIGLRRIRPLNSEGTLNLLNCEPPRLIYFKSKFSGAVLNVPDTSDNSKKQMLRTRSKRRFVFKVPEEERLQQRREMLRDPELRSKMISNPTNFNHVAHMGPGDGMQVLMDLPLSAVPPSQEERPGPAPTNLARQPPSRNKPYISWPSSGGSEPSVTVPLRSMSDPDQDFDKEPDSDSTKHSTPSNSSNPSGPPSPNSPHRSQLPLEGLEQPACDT
Experimental: as §1, §2

MDA-MB-231 = experiment: MTT cell growth assay, 48 h; format: cell-based, human; conditions: for IC50: Homo sapiens, MDA-MB-231, 48 h, 2000 cells/well, ±SE, read-out: IC50 from MTT assays
Experimental: (§3) However, as the concentration increased from 2.5 µM onwards, the effect was reversed. Similarly, DJ-Morpholine decreased the cell growth by ~30% at 0.6215 µM, while the effect remained saturated as the concentration increased. This trend was also observed in A549 lung cancer and A375M melanoma cells.
(§4) Figure 7 DJ4 analogs reduce cell growth in melanoma, breast, and lung cancer cells. MTT assay was performed to evaluate the effect of DJ4 analogs on cell growth after 48 h of treatment. IC50 values were calculated with nonlinear least squares regression curve fit by GraphPad prism. […] The error bars indicate SD from triplicates of the experiment.
(§5) The cytotoxic effect of DJ4 was studied in H1299, H226, A549, H522, H23, and H460 non-small cell lung cancer cells. The cells were seeded into 96-well plates with confluence ([…]). The cells were further treated with DMSO or DJ4 for 72 h. To study the effects of analogs, A549, A375M, and MDA-MB-231 cells were plated with low density (2000 cells/well) in a 96-well plate and grown overnight at 37 °C (with 5% CO2). Cells were treated with the analogs at the concentration of 0–10 µM for 48 h. At the end of the treatment period, cells were incubated with a tetrazolium dye MTT (3-(4,5-dimethylthiazol-2-yl)-2,5-diphenyltetrazolium bromide) reagent (Sigma) at 37 °C for 3 h to develop formazan crystals. The media was siphoned off and crystals were dissolved in DMSO and mixed gently on rocker for 5 min. Absorbance was read at 570 nm and 630 nm (background) wavelength. IC50 values were calculated from non-linear regression curve fit by using GraphPad Prism 5.0 software.

A375M = experiment: MTT cell growth assay, 48 h; format: cell-based; conditions: Homo sapiens, 2000 cells/well, ±SE, read-out: IC50 from MTT assays
Experimental: as §3, §4, §5

A549 = experiment: MTT cell growth assay, 48 h; format: cell-based; conditions: Homo sapiens; A549, 48 h, 2000 cells/well; ±SE; read-out: IC50 from MTT assays
Experimental: as §3, §4, §5

[1] = Solubility in 100% DMSO (observation); format: physicochemical
LOX IMVI = experiment: NCI-60 screen (SRB); format: cell-based, human; conditions: LOX IMVI (Melanoma), 10 µM, 48 h; negative = cell death vs time zero
From the text: (§6) The selected active compounds were screened at NCI, as a part of In Vitro Cell Line Screening Project (IVCLSP), for their effect on cell growth in 60 different cancer cell lines. The 60 human cancer cell line panel included leukemia, melanoma, non-small cell lung cancer, colon, central nervous system (CNS), ovarian, renal, prostate, and breast cancer cell lines. The detailed procedure and applications of NCI-60 cell line screening can be found at https://dtp.cancer.gov/discovery_development/nci-60/default.htm (accessed on 9 January 2023). Briefly, cells were plated in 96-well plates and incubated for 24 h. One set of cells was fixed with trichloroacetic acid at time 0 h (Tz), and SRB (sulphorhodamine B) assays were performed to quantify the cells. The remaining set of cells were treated with 10 µM single concentration of each compound and incubated for 48 h (Te) after which the cells were fixed, and the SRB assays were performed. Data are presented as percent growth relative to the control as 100% according to the following calculations:
(§7) When Te >/= Tz. Growth(%)=Te−Tz/C−Tz∗100 and when Te < Tz. (1) Growth(%)=Te−Tz/Tz∗100
(§8) Values between 0–100 indicate cell growth, zero (0) indicates no cell growth, values < 0 indicate cell death.

NCI-H522 = experiment: NCI-60 screen (SRB); format: cell-based, human; conditions: NCI-H522 (Non-Small Cell Lung Cancer), 10 µM, 48 h; negative = cell death vs time zero
From the text: as §6, §7, §8

SF-295 = experiment: NCI-60 screen (SRB); format: cell-based, human; conditions: SF-295 (CNS Cancer), 10 µM, 48 h; negative = cell death vs time zero
From the text: as §6, §7, §8

SK-MEL-28 = experiment: NCI-60 screen (SRB); format: cell-based, human; conditions: SK-MEL-28 (Melanoma), 10 µM, 48 h; negative = cell death vs time zero
From the text: as §6, §7, §8

ROCK1 = ROCK1 (Homo sapiens, UniProt Q13464); experiment: Cell-free biochemical kinase activity assay (pMYPT1 immunoblot); parameters: purchased Invitrogen; conditions: for inhibition at 1 µM: cell-free screen of 27 analogs, read-out: inhibition of MYPT1 phosphorylation
Sequence of ROCK1 (Q13464 whole entry): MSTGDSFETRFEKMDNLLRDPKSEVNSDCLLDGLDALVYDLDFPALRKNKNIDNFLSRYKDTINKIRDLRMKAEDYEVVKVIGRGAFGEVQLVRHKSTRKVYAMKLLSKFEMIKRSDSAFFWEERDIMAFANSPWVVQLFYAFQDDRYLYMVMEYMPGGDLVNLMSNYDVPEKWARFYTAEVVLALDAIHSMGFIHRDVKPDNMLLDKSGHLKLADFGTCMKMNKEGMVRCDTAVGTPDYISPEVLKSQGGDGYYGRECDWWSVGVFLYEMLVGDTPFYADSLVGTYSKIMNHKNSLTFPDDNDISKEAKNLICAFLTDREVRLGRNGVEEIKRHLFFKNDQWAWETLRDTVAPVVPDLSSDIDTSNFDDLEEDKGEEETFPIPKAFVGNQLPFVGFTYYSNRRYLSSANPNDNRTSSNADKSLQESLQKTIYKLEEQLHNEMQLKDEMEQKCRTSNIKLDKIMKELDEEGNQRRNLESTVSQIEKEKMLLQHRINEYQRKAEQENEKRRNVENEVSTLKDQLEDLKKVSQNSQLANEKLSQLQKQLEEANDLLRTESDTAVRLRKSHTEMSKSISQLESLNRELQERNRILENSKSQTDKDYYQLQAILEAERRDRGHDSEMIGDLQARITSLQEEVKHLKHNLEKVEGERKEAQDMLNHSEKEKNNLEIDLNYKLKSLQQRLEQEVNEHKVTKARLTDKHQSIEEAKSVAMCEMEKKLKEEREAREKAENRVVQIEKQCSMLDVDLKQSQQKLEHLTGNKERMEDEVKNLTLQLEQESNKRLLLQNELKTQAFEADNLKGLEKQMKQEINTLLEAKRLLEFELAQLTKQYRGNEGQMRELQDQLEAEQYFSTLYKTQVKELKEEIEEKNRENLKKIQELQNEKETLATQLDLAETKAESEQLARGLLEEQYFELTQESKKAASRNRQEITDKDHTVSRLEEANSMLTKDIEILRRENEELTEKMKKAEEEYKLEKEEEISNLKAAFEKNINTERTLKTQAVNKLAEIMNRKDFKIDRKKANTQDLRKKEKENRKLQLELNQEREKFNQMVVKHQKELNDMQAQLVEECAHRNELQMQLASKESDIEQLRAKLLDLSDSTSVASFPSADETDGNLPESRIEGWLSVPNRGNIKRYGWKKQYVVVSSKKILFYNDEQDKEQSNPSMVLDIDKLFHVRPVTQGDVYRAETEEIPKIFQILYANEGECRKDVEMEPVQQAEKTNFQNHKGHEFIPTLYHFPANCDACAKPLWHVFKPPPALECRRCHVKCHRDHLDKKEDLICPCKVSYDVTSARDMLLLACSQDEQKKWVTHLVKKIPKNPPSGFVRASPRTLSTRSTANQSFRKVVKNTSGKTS
Experimental: as §1, §2
Figure S1. Screening of analogs in the in vitro kinase activity assay to identify […]
Kinase inhibitory activity of the 27 compounds was evaluated by in vitro cell-free biochemical kinase activity assay. The compounds (1 µM) were incubated with recombinant ROCK1 (9.48nM), recombinant MYPT1 (a kinase substrate, 84 nM) and ATP (25 µM). Phosphorylation status of the substrate (pMYPT1) was analyzed to study the […]

ROCK2 = ROCK2 (Homo sapiens, UniProt O75116); experiment: as above; parameters: purchased Invitrogen
Sequence of ROCK2 (O75116 whole entry): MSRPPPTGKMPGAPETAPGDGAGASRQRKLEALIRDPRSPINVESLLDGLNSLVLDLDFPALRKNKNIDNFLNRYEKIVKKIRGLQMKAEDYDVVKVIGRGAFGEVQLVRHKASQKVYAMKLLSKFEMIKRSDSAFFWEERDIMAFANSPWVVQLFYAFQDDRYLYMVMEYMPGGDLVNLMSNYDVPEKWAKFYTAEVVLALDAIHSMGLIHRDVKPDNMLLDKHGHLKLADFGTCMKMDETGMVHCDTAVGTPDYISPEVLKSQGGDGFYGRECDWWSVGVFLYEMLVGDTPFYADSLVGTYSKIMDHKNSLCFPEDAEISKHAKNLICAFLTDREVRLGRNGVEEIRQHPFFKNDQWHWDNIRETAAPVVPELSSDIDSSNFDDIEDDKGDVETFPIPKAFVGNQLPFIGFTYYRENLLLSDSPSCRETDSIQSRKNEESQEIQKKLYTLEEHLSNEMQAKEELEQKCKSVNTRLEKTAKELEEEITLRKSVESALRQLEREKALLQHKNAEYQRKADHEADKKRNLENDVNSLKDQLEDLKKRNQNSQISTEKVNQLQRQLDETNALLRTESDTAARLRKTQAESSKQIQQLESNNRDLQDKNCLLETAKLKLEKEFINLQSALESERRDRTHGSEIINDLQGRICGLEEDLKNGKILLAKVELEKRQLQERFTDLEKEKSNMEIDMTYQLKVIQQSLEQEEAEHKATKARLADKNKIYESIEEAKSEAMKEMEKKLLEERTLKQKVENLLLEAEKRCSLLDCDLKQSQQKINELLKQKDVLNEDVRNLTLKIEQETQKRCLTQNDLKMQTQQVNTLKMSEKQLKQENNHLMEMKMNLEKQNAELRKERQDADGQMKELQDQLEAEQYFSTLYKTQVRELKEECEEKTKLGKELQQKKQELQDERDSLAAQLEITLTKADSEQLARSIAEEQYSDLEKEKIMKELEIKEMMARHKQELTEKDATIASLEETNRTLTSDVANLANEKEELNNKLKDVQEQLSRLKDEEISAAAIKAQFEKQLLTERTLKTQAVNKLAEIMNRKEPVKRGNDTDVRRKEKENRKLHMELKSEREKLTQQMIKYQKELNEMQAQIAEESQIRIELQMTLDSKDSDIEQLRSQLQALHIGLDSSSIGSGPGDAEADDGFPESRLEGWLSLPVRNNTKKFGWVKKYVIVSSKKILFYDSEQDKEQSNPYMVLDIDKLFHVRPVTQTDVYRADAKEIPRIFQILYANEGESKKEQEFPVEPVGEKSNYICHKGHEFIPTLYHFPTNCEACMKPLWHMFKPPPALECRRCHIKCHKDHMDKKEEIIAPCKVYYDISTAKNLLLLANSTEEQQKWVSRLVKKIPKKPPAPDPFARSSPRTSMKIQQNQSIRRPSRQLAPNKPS
Experimental: as §1, §2

Structure (SMILES) | inhibition of kinase activity (qualitative immunoblot) (MRCKα; 1 µM) | inhibition of kinase activity (qualitative immunoblot) (MRCKβ) | IC50 (MDA-MB-231) [µM] | IC50 (A375M) [µM] | IC50 (A549) [µM] | solubility in 100% DMSO [1] | percent cell growth (LOX IMVI) [%] | percent cell growth (NCI-H522) [%] | percent cell growth (SF-295) [%] | percent cell growth (SK-MEL-28) [%] | inhibition of kinase activity (qualitative immunoblot) (ROCK1; ROCK1, 1 µM) | inhibition at 1 µM (ROCK1; ROCK1, 1 µM) [%] | inhibition of kinase activity (qualitative immunoblot) (ROCK2; ROCK2, 1 µM) | inhibition of kinase activity (qualitative immunoblot) (MRCKα; 0.1 µM) | inhibition of kinase activity (qualitative immunoblot) (ROCK1; ROCK1, 0.1 µM) | inhibition of kinase activity (qualitative immunoblot) (ROCK2; ROCK2, 0.1 µM) | decrease in cell growth (MDA-MB-231; MDA-MB-231, 0.6215 µM, 48 h, effect saturated at higher concentrations)
C=CC/N=C1\NC(=O)/C(=C\c2c[nH]c3ncccc23)S1 [DJ-Allyl] | minimal inhibition | minimal inhibition | 4.1 ± 1.23 | 4.7 ± 0.52 | 5 ± 2.2 | much better solubility | 0.6 | −5.3 | 13.0 | −2.4 | almost completely inhibited | > 50 | almost completely inhibited |  |  |  | 
O=C1N/C(=N\Cc2ccccc2)S/C1=C/c1c[nH]c2ncccc12 [DJ110] | significantly inhibit | significantly inhibit | 0.65 ± 0.07 | 0.49 ± 0.03 | 0.88 ± 0.16 | poor solubility |  |  |  |  | significantly inhibit | > 50 | significantly inhibit | significantly inhibited | significantly inhibited | significantly inhibited | 
O=C1N/C(=N\CCN2CCOCC2)S/C1=C/c1c[nH]c2ncccc12 [DJ-Morpholine] | minimal inhibition | minimal inhibition | > 10 | > 10 | > 10 | poor solubility |  |  |  |  | almost completely inhibited | > 50 | almost completely inhibited |  |  |  | ~ 30%
CC/N=C1\NC(=O)/C(=C\c2c[nH]c3ncccc23)S1 [DJE4] | minimal inhibition | minimal inhibition | 5.9 ± 1.63 | 5.1 ± 0.32 | 6.1 ± 1.69 | much better solubility | 1.8 | −28.6 | 5.0 | −17.2 | almost completely inhibited | > 50 | almost completely inhibited |  |  |  | 
O=C1N/C(=N\CCc2ccccc2)S/C1=C/c1c[nH]c2ncccc12 [DJ4] | significantly inhibit | significantly inhibit | 2.3 ± 0.23 | 1.1 ± 0.15 | 5.4 ± 1.19 | much better solubility | 16.3 | 26.6 | 22.6 | 16.0 | significantly inhibit |  | significantly inhibit | ineffective | ineffective | ineffective | 
Cl.O=C1NC(=NCCc2ccccc2)SC1=Cc1c[nH]c2ncccc12 (mixture of isomers) [DJ4-HCl] |  |  |  |  |  |  | 8.3 | 4.3 | 18.7 | 0.8 |  |  |  |  |  |  | 
